Measured values reported in patent publication US10370333B2 (Sanford Burnham Prebys Medical Discovery Institute, priority 2012, dated 2019).
pIC50: −log10 of the molar value.

Target: TNAP (Homo sapiens (Human), UniProt P05186)
Assay: TNAP (PPi) inhibition assay, pyrophosphate as substrate
Format: biochemical
Procedure: Expression plasmids containing a secreted epitope-tagged TNAP were transfected into COS-1 cells for transient expression. The medium was replaced with Opti-MEM 24 h later and serum-free media containing secreted proteins was collected 60 hours after electroporation. The medium was dialyzed against TBS containing 1 mM MgCl2 and […] (to remove phosphate) and filtered through a […] cellulose acetate filter.
To determine the inhibition selectivity for inhibitor candidates, human TNAP, PLAP or IAP were added to microtiter plates followed by addition of the substrate pNPP (0.5 mM) and activity was measured in 1 M DEA-HCl buffer, pH 9.8 or in 1 M Tris-HCl buffer, pH 7.5, containing 1 mM MgCl2 and 20 μM ZnCl2, in the presence of potential inhibitors (0-30 μM). TNAP, PLAP and IAP activities were adjusted to an approximate λA405 nm, equivalent to 1, measured after 30 min. Residual AP activity in the presence of inhibitors was expressed as percentage of the control activity. To investigate the mechanism of inhibition, double reciprocal plots of enzyme activity (expressed as mA405 nm min−1) vs. substrate concentration were constructed, in the presence of various concentrations of added inhibitors (0-30 μM). The y-axis intercepts of the 1/v vs. 1/[S] plots, were then plotted vs. [I] to graphically extract Ki values as the x-intercept in this plot. […] Inhibitors were further tested and sorted based on their kinetic properties at pH 7.4 using PPi, the relevant natural substrate of TNAP. […] Amounts of released phosphate were measured using the Biomol Green Reagent (Biomol Research Laboratories, Inc., Plymouth Meeting, Pa.).

| SMILES | pIC50 |
| --- | --- |
| O=C(O)c1cncc(NS(=O)(=O)c2cc(Br)ccc2OC(F)(F)F)c1 [Example XII-10, 5-(5-Bromo-2-(trifluoromethoxy)phenylsulfonamido)nicotinic acid] | > 7.00 |
| CNC(=O)c1cncc(NS(=O)(=O)c2cc(Cl)ccc2OC(F)(F)F)c1 [Example XII-6, 5-(5-Chloro-2-(trifluoromethoxy)phenylsulfonamido)-N-methylnicotinamide] | 6.00 to 7.00 |
| O=C(O)c1cncc(NS(=O)(=O)c2cc(Cl)ccc2OC(F)(F)F)c1 | 6.00 to 7.00 |
| COc1ccc(Cl)cc1S(=O)(=O)Nc1cncc(C(=O)N2CCOCC2)c1 [Example IV-34, 5-Chloro-2-methoxy-N-(5-(morpholine-4-carbonyl)pyridin-3-yl)benzenesulfonamide] | 6.00 to 7.00 |
| COC(=O)c1cncc(NS(=O)(=O)c2cc(Cl)ccc2OC(F)(F)F)c1 [Example XII-1, Methyl 5-(5-chloro-2-(trifluoromethoxy)phenylsulfonamido)nicotinate] | 6.00 to 7.00 |
| O=S(=O)(Nc1cncc(-c2cnccn2)c1)c1cc(Cl)ccc1OC(F)(F)F [Example XI-20, 5-Chloro-N-(5-(pyrazin-2-yl)pyridin-3-yl)-2-(trifluoromethoxy)benzenesulfonamide] | 6.00 to 7.00 |
| O=S(=O)(Nc1cncc(-c2cnccn2)c1)c1cc(Br)ccc1OC(F)(F)F [Example XI-21, 5-Bromo-N-(5-(pyrazin-2-yl)pyridin-3-yl)-2-(trifluoromethoxy)benzenesulfonamide] | 6.00 to 7.00 |
| COc1ccc(C(=O)N2CCOCC2)cc1S(=O)(=O)Nc1cccnc1 [Example I-23, 2-Methoxy-5-(morpholine-4-carbonyl)-N-pyridin-3-yl-benzenesulfonamide] | < 6.00 |
| COc1ccc(OC)c(S(=O)(=O)Nc2cncc(-c3ccc(Cl)cc3)c2)c1 [Example III-19, N-[5-(4-Chloro-phenyl)-pyridin-3-yl]-2,5-dimethoxy-benzenesulfonamide] | 6.00 to 7.00 |
| COC(=O)c1cncc(NS(=O)(=O)c2cc(Br)ccc2OC(F)(F)F)c1 [Example XII-9, Methyl 5-(5-bromo-2-(trifluoromethoxy)phenylsulfonamido)nicotinate] | 6.00 to 7.00 |
| COc1ccc(Cl)cc1S(=O)(=O)Nc1cncc(C(N)=O)c1 [Example IV-26, 5-(5-Chloro-2-methoxyphenylsulfonamido)nicotinamide] | > 7.00 |
| COc1c(Cl)cccc1S(=O)(=O)Nc1cccnc1 [Example I-13, 3-Chloro-2-methoxy-N-pyridin-3-yl-benzenesulfonamide] | < 6.00 |
| COc1ccc(-c2cncc(NS(=O)(=O)c3cc(Br)ccc3OC)c2)cc1 [Example III-2, 5-Bromo-2-methoxy-N-[5-(4-methoxy-phenyl)-pyridin-3-yl]-benzenesulfonamide] | 6.00 to 7.00 |
| COc1ccc(Br)cc1S(=O)(=O)Nc1cc(C)no1 [Example V-5, 5-Bromo-2-methoxy-N-(3-methyl-isoxazol-5-yl)-benzenesulfonamide] | 6.00 to 7.00 |
| COc1ccc(Br)cc1S(=O)(=O)Nc1cncc(C(=O)NC2CCCCC2)c1 [Example IV-20, 5-(5-Bromo-2-methoxyphenylsulfonamido)-N-cyclohexylnicotinamide] | > 7.00 |
| COc1ccc(OC)c(S(=O)(=O)Nc2nnc(C(F)(F)F)s2)c1 [Example V-20] | < 6.00 |
| COc1ccc(S(=O)(=O)Nc2cnc3ccccc3c2)c(OC)c1 [Example II-4, 2,4-Dimethoxy-N-quinolin-3-yl-benzenesulfonamide] | < 6.00 |

Now from value to compound:

| pIC50 | SMILES |
| --- | --- |
| 6.00 to 7.00 | COc1ccc(Br)cc1S(=O)(=O)Nc1cncc(C(=O)NCCN(C)C)c1 [Example IV-22, 5-(5-Bromo-2-methoxyphenylsulfonamido)-N-(2-(dimethylamino)ethyl)nicotinamide] |
| < 6.00 | COc1ccc(OC)c(S(=O)(=O)N(C)c2cnc3ccccc3c2)c1 [Example VII-12, 2,5-Dimethoxy-N-methyl-N-(quinolin-3-yl)benzenesulfonamide] |
| > 7.00 | COc1cccc(-c2cncc(NS(=O)(=O)c3cc(Cl)ccc3OC)c2)c1 [Example III-48, 5-Chloro-2-methoxy-N-[5-(3-methoxy-phenyl)-pyridin-3-yl]-benzenesulfonamide] |
| < 6.00 | CCCNC(=O)c1cncc(NS(=O)(=O)c2cc(OC(F)(F)F)ccc2OC)c1 [Example XII-21, 5-(2-Methoxy-5-(trifluoromethoxy)phenylsulfonamido)-N-propylnicotinamide] |
| > 7.00 | COc1ccc(Cl)cc1S(=O)(=O)Nc1cncc(-c2cncs2)c1 [Example III-84, 5-Chloro-2-methoxy-N-(5-(thiazol-5-yl)pyridin-3-yl)benzenesulfonamide] |
| 6.00 to 7.00 | COCCNC(=O)c1cncc(NS(=O)(=O)c2cc(Cl)ccc2OC)c1 [Example IV-32, 5-(5-Chloro-2-methyoxyphenylsulfonamido)-N-(2-methoxyethyl)nicotinamide] |
| < 6.00 | COCCCN(c1cnc2ccccc2c1)S(=O)(=O)c1cc(OC)ccc1OC [Example VII-18, 2,5-Dimethoxy-N-(3-methoxypropyl)-N-(quinolin-3-yl)benzenesulfonamide] |
| < 6.00 | COc1ccc(Br)cc1S(=O)(=O)Nc1ccc(N(C)C)nc1 [Example VIII-7, 5-Bromo-N-(6-(dimethylamino)pyridin-3-yl)-2-methoxybenzenesulfonamide] |
| 6.00 to 7.00 | COc1ccc(OC)c(S(=O)(=O)Nc2cncc(-c3ccccc3C(F)(F)F)c2)c1 [Example III-43, 2,5-Dimethoxy-N-[5-(2-trifluoromethyl-phenyl)-pyridin-3-yl]-benzenesulfonamide] |
| < 6.00 | CCCN(c1cnc2ccccc2c1)S(=O)(=O)c1cc(Br)ccc1OC [Example VII-3, 5-Bromo-2-methoxy-N-propyl-N-(quinolin-3-yl)benzenesulfonamide] |
| > 7.00 | CCOC(=O)c1cncc(NS(=O)(=O)c2cc(OC)ccc2OC)c1 [Example IV-12, Ethyl 5-(2,5-dimethoxyphenylsulfonamido)nicotinate] |
| < 6.00 | C=CCN(c1cnc2ccccc2c1)S(=O)(=O)c1cc(OC)ccc1OC [Example VII-20, N-Allyl-2,5-dimethoxy-N-(quinolin-3-yl)benzenesulfonamide] |
| > 7.00 | COc1ncc(Br)cc1S(=O)(=O)Nc1cnc2ccccc2c1 [Example VI-1, 5-Bromo-2-methoxy-pyridine-3-sulfonic acid quinolin-3-ylamide] |
| < 6.00 | COc1ccc(Br)cc1S(=O)(=O)N(c1cnc2ccccc2c1)C(C)C [Example VII-4, 5-Bromo-N-isopropyl-2-methoxy-N-(quinolin-3-yl)benzenesulfonamide] |
| < 6.00 | COc1ccc(OC)c(S(=O)(=O)Nc2ccc(N3CCCCC3)nc2)c1 [Example VIII-18, 2,5-Dimethoxy-N-(3,4,5,6-tetrahydro-2H-[1,2′]bipyridinyl-5′-yl)-benzenesulfonamide] |
| < 6.00 | CCN(c1cnc2ccccc2c1)S(=O)(=O)c1cc(Br)ccc1OC [Example VII-2, 5-Bromo-2-methoxy-N-ethyl-N-(quinolin-3-yl)benzenesulfonamide] |
| < 6.00 | COc1ccc(OC)c(S(=O)(=O)Nc2ccc(N(C)C)nc2)c1 [Example VIII-8, N-(6-(Dimethylamino)pyridin-3-yl)-2,5-dimethoxybenzenesulfonamide] |
| < 6.00 | COc1ccc(OC)c(S(=O)(=O)Nc2cc(C(F)(F)F)n(C)n2)c1 [Example V-14, 2,5-Dimethoxy-N-(1-methyl-5-trifluoromethyl-1H-pyrazol-3-yl)-benzenesulfonamide] |
| < 6.00 | COc1ccc(OC)c(S(=O)(=O)Nc2cscn2)c1 |
| > 7.00 | COc1ccc(OC)c(S(=O)(=O)Nc2cncc(-c3cncs3)c2)c1 [Example III-82, 2,5-Dimethoxy-N-(5-(thiazol-5-yl)pyridin-3-yl)benzenesulfonamide] |
| < 6.00 | COc1ccc(OC)c(S(=O)(=O)N(c2cnc3ccccc3c2)C(C)C)c1 [Example VII-14, 2,5-Dimethoxy-N-isopropyl-N-(quinolin-3-yl)benzenesulfonamide] |
| > 7.00 | COc1ccc(OC)c(S(=O)(=O)Nc2cncc(-c3ccccc3Cl)c2)c1 [Example III-40, N-[5-(2-Chloro-phenyl)-pyridin-3-yl]-2,5-dimethoxy-benzenesulfonamide] |
| > 7.00 | Cc1ccc(OC(F)(F)F)c(S(=O)(=O)Nc2cnc3ccccc3c2)c1 [Example X-4, 5-Methyl-N-quinolin-3-yl-2-trifluoromethoxy-benzenesulfonamide] |
| > 7.00 | O=S(=O)(Nc1cnc2ccccc2c1)c1cc(Cl)ccc1OC(F)(F)F [Example X-3, 5-Chloro-N-quinolin-3-yl-2-trifluoromethoxy-benzenesulfonamide] |
| > 7.00 | COc1cc(Cl)ccc1S(=O)(=O)Nc1cnc2ccccc2c1 [Example II-10, 4-Chloro-2-methoxy-N-quinolin-3-yl-benzenesulfonamide] |
| 6.00 to 7.00 | COc1ccc(-c2ccncc2)cc1S(=O)(=O)Nc1cnc2ccccc2c1 [Example II-9, 2-Methoxy-5-pyridin-4-yl-N-quinolin-3-yl-benzenesulfonamide] |
